Laboratory results reported in patent US20120305840A1, “CARBON DIOXIDE ABSORBING SOLUTION” (Kabushiki Kaisha Toshiba, priority 2009, published 2012).

Legend:
[1] = Volatility: decreased amount of absorbent by 1H-NMR after heating; assay type: physicochemical; settings: 60 minutes at 140° C.
Method: According to the decreased amount, the volatility was evaluated. The less the decreased amount was, the less volatile the absorbent was regarded as. In general, if containing a less volatile absorbent, the absorbing solution can be repeatedly regenerated without decrease of the absorbent content.

[2] = Precipitation in the absorbing solution after absorbing carbon dioxide; assay type: physicochemical

SMILES | volatility of the absorbent (in words) [1] | precipitation in the absorbing solutions on absorbing carbon dioxide to form products [2]
O=C([O-])C1CNC1.[K+] [absorbent 1, potassium 1-aza-azetidine-3-carboxylate] | hardly volatilize | did not precipitate
O=C([O-])C1CCCN1.[K+] (stereo not shown) [absorbent 2, pyrrolidine-2-carboxylic acid salt] | hardly volatilize | did not precipitate
